Literature values as cited in PMC3611965 (Nuclear medicine and biology, 2012).
Read-outs that look alike come from different tables or passages of the source.

Tests used:
[1] = system: FAAH; details: rats; ref [25]; cited from earlier work
[2] = system: FAAH; details: rhesus monkeys; ref [23]; cited from earlier work
[3] = system: FAAH; details: human studies; ref [23]; cited from earlier work

Structure (SMILES)	brain uptake [1]	brain uptake (PET) [2]	brain uptake (PET) [3]
O=[11C](NC1CCCCC1)Oc1ccc(O)c(-c2ccccc2)c1 [[^11 C]-CURB]	good brain uptake		
CN(C)C(=O)[C@H]1C[C@@H]1c1ccc(-c2ncn([11CH3])c2Sc2ccc(Cl)cn2)cc1 [[^11 C]MK-3168]		Heterogeneous, specific brain uptake	high brain uptake
